In US4562196A, “2,4-Diaminopyridine as a pharmacologic agent” (Nelson Research & Development, priority 1984, dated 1985):

Experiments:
guinea-pig ileum = experiment: Ileum of the guinea pig: activity on smooth muscle; conditions: for pD2 (negative logarithm of the dose required to produce 50% of the maximum response): compared to maximal contraction by 2×10^-7 M carbochol, 37° C.
Protocol: This preparation tests the pharmacological activity on smooth muscle (Moritoki, Takei, Makomoto and Ishida, Arch. Int. Pharmacodyn. Ther. 232, 28 (1978).
The […] of the ileum was measured. This is compared to the maximal contraction caused by carbochol. From dose response curves the following pD2 values were determined (the pD2 value is the negative logarithm of the dose required to produce 50% of the maximum response).
Segments of guinea-pig ileum of 3 to 4 cm. length from 10 cm above the ileocaecal junction were used. The oral end of each segment was fixed to a hook and the distal end was connected to an isotonic transducer with a 1 g counterweight. The preparation was then immersed to an organ bath (25 ml) at 37° C. containing Krebs solution and bubbled with oxygen containing 5% CO2. After an equilibration time of about 1 hour, 2×10^-7 M carbochol was added to the bath for maximal contraction. After wash out (2×) the drugs were added cumulatively to the bath.

[1] = tested on: ketamine-xylazine narcosis; experiment: Antagonism of ketamine-xylazine narcosis (central effects); format: in vivo, Rats
Protocol: This is a method of testing the central effects of the aminopyridines.
Rats were anaesthetized with xylazine (0.05 ml of a 2% soln, s.c.) and ketamine (0.1 ml of a soln, i.p.). After 10 min. the aminopyridines (1 mg./kg) were administered, i.v. The time required for "full recovery" (i.e. turning over and crawling) was measured. Groups of 10 rats were used for each treatment.

[2] = tested on: neuromuscular transmission blocked with pancuronium bromide (rat phrenic nerve-hemidiaphragm); experiment: Rat hemidiaphragm: antagonism of pancuronium blockade in vitro; set-up: species or system male Wistar rats; conditions: for EC50: 90% block by pancuronium bromide about 8×10^-6 M, 37° C., cumulative addition, read-out: EC50 (concentration that produces a 50% antagonism)
Protocol: Left hemidiaphragms with their phrenic nerves were removed from male Wistar rats weighing 280-320 g. and were mounted in an organ bath, containing Krebs solution, maintained at 37° C. and gassed with oxygen containing 5% CO2. The nerve was stimulated at a frequency of 0.1 Hz via electrodes with rectangular pulses of 0.3 ms duration and of a strength greater than that required to reproduce maximal twitch.

[3] = tested on: neuromuscular block by pancuronium bromide (sciatic nerve-anterior tibialis); experiment: Rat sciatic nerve-anterior tibialis preparation: antagonism of neuromuscular block in vivo; set-up: species or system Rats; conditions: for ED50: Rattus norvegicus, iv, 10 min, read-out: ED50 (dose of drug producing a 50% antagonism), constant pancuronium infusion, 90-95% depression of twitch tension, cumulative dosing, 10 min interval
Protocol: This preparation is used to test the antagonistic action of aminopyridines against neuromuscular blocking agents in vivo. (Miller, Denissen, van der Pol, Agoston, Booy and Crul, J. Pharm. Pharmacol. 30, 699 (1978)).
Rats were administered a constant infusion of pancuronium bromide and when a constant block was achieved, one of the aminopyridines was administered. The ED50 's (dose of drug producing a 50% antagonism) were determined.
Rats (280-320 g) were anaesthetized with pentobarbital. Both jugular veins were cannulated for administration of drugs. A caratoid artery was cannulated for measurement and recording of arterial blood pressure. The trachea was intubated and ventilation controlled by means of a Braun air pump. The tendon of the left tibialist was freed, sectioned and connected to a force displacement transducer. The sciatic nerve was stimulated by supramaximal 0.1 Hz stimuli of 0.2 msec duration through a bipolar electrode. Twitch tension was recorded on a polygraph. The temperature of the rat was maintained at 37° C. with heating lamps. Pancuronium bromide was administered intravenously by continuous infusion until 90-95% depression of twitch tension was obtained. This infusion speed was maintained during the whole experiment. When the block was steady for at least 15 min one of the drugs was given cumulatively with 10 min interval.

central nervous system = conditions: in vivo; cited from earlier work
rat heart = experiment: Isolated heart of the rat: positive inotropic action; set-up: species or system male Wistar rats; conditions: for changes in frequency or E.C.G.: same perfusion as L.V.P.
Protocol: This preparation evaluates the positive inotropic action of a drug (Koomen, van Gilst, Zimmerman and Noordwijk, Arch. Int. Pharmacodyn. Ther. 255, 212 (1982)).
Solutions of the aminopyridines were added to the perfusion solution of the rat heart. The left ventricular pressure (L.V.P.) was recorded in order to evalute the positive inotropic action. Frequency and E.C.G. were also monitored. Male Wistar rats (270-300 g) were anaesthetized with diethyl ether. After heparinization the hearts were quickly removed. Subsequently the heart was perfused according to the method of Langendorff. The perfusion fluid contained: NaCl 128 mM; KCl 4.7 mM; CaCl2 1.35 mM; MgCl2 1.05 mM; NaHPO4 0.42 mM; NaHCO3 20.2 mM; glucose 11.1 mM. The pH of the perfusion fluid after aeration with 95% O2 --5% CO2 was 7.35±0.05 (37° C.). L.V.P. was measured by means of a catheter inserted in the left ventricule and connected to a pressure transducer. A biopolar E.C.G. was obtained by means of two silver electrodes: one attached to the metal inflow cannula and the other to the ventricular apex. Coronary flow (volume of perfusion fluid per time unit) was measured by a microprocessor, which controlled the perfusion pressure by adjusting the peristaltic perfusion pump.

[4] = in vitro; vs 4-AP; cited from earlier work
[5] = 4-AP compared with 3,4-DAP; cited from earlier work
mice [6] = conditions: i.p., Vohra et al., J. Med. Chem. 8, 296 (1965); cited from earlier work
mice [7] = experiment: Acute toxicity (LD50), intraperitoneal, mice; format: in vivo; conditions: from LD50 values
Protocol: Moreover, the LD50 values for intraperotoneal 4-AP and 3,4-DAP in mice are 10 mg./kg. and 20 mg./kg., respectively (Vohra, et al. J. Med. Chem 8, 296-304 (1965)). The LD50 dosage corresponds to a lethal dose in 50% of the animals treated. Thus, although not as toxic as 4-AP, 3,4-DAP suffers from the similar disadvantage of high toxicity at dosage levels near those that would be used in therapy.

[8] = tested on: potassium channel in axonal membranes; conditions: cited from earlier work
[9] = tested on: neuromuscular blocking drugs; conditions: with neostigmine and pyridostigmine; cited from earlier work

Q: Which “pD2 (negative logarithm of the dose required to produce 50% of the maximum response)” value (guinea-pig ileum) does the source give for `Nc1ccnc(N)c1` [2,4-Diaminopyridine, 2,4-diaminopyridine] here?
A: 4.52

Q: And the “potency relative to 4-aminopyridine” value (guinea-pig ileum; vs 4-aminopyridine)?
A: slightly more potent than 4-aminopyridine

Q: What about the “recovery compared with saline controls” value ([1]; 1 mg./kg, vs saline controls) of the same molecule?
A: did not differ significantly from controls receiving saline

Q: And the “central actions relative to 3,4-diaminopyridine” value ([1]; vs 3,4-diaminopyridine)?
A: somewhat weaker than those of 3,4-diaminopyridine

Q: What about the “central actions relative to 4-aminopyridine” value ([1]; vs 4-aminopyridine) of the same molecule?
A: much weaker than those of 4-aminopyridine

Q: And the EC50 [2]?
A: 15 µM

Q: What about the “potency relative to 3,4-diaminopyridine” value ([2]; vs 3,4-diaminopyridine) of the same molecule?
A: about the same potency as 3,4-diaminopyridine

Q: What about the “potency relative to 4-aminopyridine” value ([2]; vs 4-aminopyridine) of the same molecule?
A: about 3.5 times more potent

Q: What about the ED50 [3] of the same molecule?
A: 0.14 mg/kg

Q: And the “potency relative to 3,4-diaminopyridine” value ([3]; vs 3,4-diaminopyridine)?
A: about twice as potent as 3,4-diaminopyridine

Q: What about the “potency relative to 4-aminopyridine” value ([3]; vs 4-aminopyridine) of the same molecule?
A: about 3 times more potent

Q: What about the “convulsions, central adverse effects” value (central nervous system) of the same molecule?
A: has not been shown to cause convulsions

Q: What about the “increase of left ventricular pressure (L.V.P.)” value (rat heart; 5×10^-6 mol/l to 10^-4 mol/l) of the same molecule?
A: up to 50%

Q: And the “changes in frequency or E.C.G.” value (rat heart)?
A: No changes in frequency or E.C.G. were noted

Q: And the “effectiveness relative to 4-aminopyridine” value (rat heart; vs 4-aminopyridine)?
A: significantly more effective than 4-aminopyridine

Q: What does the source list for `Nc1ccncc1N` [3,4-Diaminopyridine, 3,4-diaminopyridine]?
A: peripheral and central action relative to 4-AP [4]: stronger peripheral action and less central action than 4-AP in vitro; EC50 [2]: 10 µM; action in vivo [5]: almost the same; ED50 [3]: 0.25 mg/kg; convulsions, central adverse effects (central nervous system): tendency to cause convulsions; LD50 (mice [6]): 20 mg/kg; toxicity relative to 2,4-DAP (mice [7]): an order of magnitude more toxic than the compound of the present invention

Q: With `Nc1ccncc1` [4-Aminopyridine, 4-aminopyridine] as the molecule, how does the “pD2 (negative logarithm of the dose required to produce 50% of the maximum response)” value (guinea-pig ileum) read?
A: 4.30

Q: What about the “potassium channel blocking action” value [8] of the same molecule?
A: potassium channel blocking action in axonal membranes

Q: What about the EC50 [2] of the same molecule?
A: 55 µM

Q: And the “action in vivo” value [5]?
A: almost the same

Q: And the ED50 [3]?
A: 0.45 mg/kg

Q: And the “convulsions, central adverse effects” value (central nervous system)?
A: hypertension and convulsions at dosage levels only slightly exceeding the clinical dosage

Q: And the “increase of left ventricular pressure (L.V.P.)” value (rat heart; 2×10^-5 to 1×10^-4 mol/l)?
A: up to 40%

Q: And the “changes in frequency or E.C.G.” value (rat heart)?
A: No changes in frequency or E.C.G. were noted

Q: And the LD50 (mice [6])?
A: 10 mg/kg

Q: What about the “toxicity relative to 2,4-DAP” value (mice [7]) of the same molecule?
A: an order of magnitude more toxic than the compound of the present invention

Q: What about the “potentiation of anticholinesterase drugs” value [9] of the same molecule?
A: potentiates anticholinesterase drugs
